Blank lines part the entries; values can stand above or below the compound they belong to.
Assay: solvent given as SMILES

- emission maximum (in ClCCl): 602 nm
Structure (SMILES): CCOC(=O)/C=C/C1=[N+]2C(=C(c3c(C)cc(C)cc3C)c3ccc(/C=C/C(=O)OCC)n3[B-]2(F)F)C=C1

- emission maximum (in CCCCCC): 379 nm
- emission maximum (in CO): 379 nm
- emission maximum (in ClCCl): 380 nm
Structure (SMILES): CC(C)(C)c1ccc2ccc3c(C(C)(C)C)ccc4ccc1c2c43

- emission maximum (in CCCCCC): 568 nm
- emission maximum (in ClCCl): 593 nm
Structure (SMILES): CC(C)[Si](C#Cc1c2ccccc2c(C#C[Si](C(C)C)(C(C)C)C(C)C)c2nc3cc4c(cc3nc12)C1c2ccccc2C4c2ccccc21)(C(C)C)C(C)C

- emission maximum (in CCCCCC): 654 nm
Structure (SMILES): CC(C)[Si](C#Cc1c2cc3ccccc3cc2c(C#C[Si](C(C)C)(C(C)C)C(C)C)c2nc3c(ccc4cc5ccccc5cc43)nc12)(C(C)C)C(C)C

- emission maximum (in CCO): 576 nm
- emission maximum (in ClCCl): 566 nm
- emission maximum (in O): 595 nm
Structure (SMILES): O=Cc1ccc(-c2cccc(-c3nc4ccccc4s3)c2O)s1

- emission maximum (in CC#N): 504 nm
- emission maximum (in ClCCl): 610 nm
Structure (SMILES): CC(=O)c1cc(=O)n(C)c2cc(-c3ccc(N(C)C)cc3)sc12

- emission maximum (in O): 571 nm
Structure (SMILES): CC[n+]1nc2cc3c4c(c2c2cc(C)ccc21)CCCN4CCC3

- emission maximum (in CN(C)C=O): 431 nm
Structure (SMILES): Cc1ccc2nc(-c3cccc4nc(C)[nH]c(=O)c34)[nH]c2c1

- emission maximum (in CC#N): 388 nm
- emission maximum (in CCCCOCCCC): 389 nm
- emission maximum (in CO): 387 nm
Structure (SMILES): CC(=O)Nc1cc2ccc3cccc4ccc(c1)c2c34

- emission maximum (in C1CCCCC1): 391 nm
Structure (SMILES): COc1ccc2c3c(c4ccc(OC)cc4c2c1)C(C)(C)c1ccccc1-3

- emission maximum (in C1CCOC1): 650 nm
Structure (SMILES): C(=C\c1c2ccccc2cc2ccccc12)/c1c2ccccc2cc2ccccc12

- emission maximum (in ClC(Cl)Cl): 415 nm
Structure (SMILES): COc1ccc2cc(C#N)c3ccc4ccccc4c3c2c1

- emission maximum (in C1CCCCC1): 400 nm
- emission maximum (in CO): 420 nm
Structure (SMILES): COc1ccc(/C=C(\C)c2nc3ccccc3s2)cc1

- emission maximum (in ClCCl): 532 nm
Structure (SMILES): CCC1=C(C)C2=C(/C=C/c3ccc([N+](=O)[O-])cc3)c3c(C)c(CC)c(C)n3[B-](F)(F)[N+]2=C1C

- emission maximum (in C1CCCCC1): 413.89 nm
- emission maximum (in CC#N): 490.48 nm
- emission maximum (in CCOC(C)=O): 468.65 nm
Structure (SMILES): COc1c(-c2ccc(N(C)C)cc2)oc2ccccc2c1=O

- emission maximum (in C1CCCCC1): 445 nm
- emission maximum (in C1CCOC1): 508 nm
- emission maximum (in CC#N): 559 nm
- emission maximum (in CS(C)=O): 563 nm
- emission maximum (in ClCCl): 528 nm
Structure (SMILES): c1ccc(N(c2ccccc2)c2ccc(-c3ncnc4ccccc34)cc2)cc1

- emission maximum (in C1CCCCC1): 371 nm
Structure (SMILES): COCCC1(CCOC)c2cc(-c3ccc(OC)cc3)ccc2-c2ccc(-c3ccc(OC)cc3)cc21

- emission maximum (in ClCCl): 551 nm
Structure (SMILES): Cc1cc(C)c(C2=C3C=C(/C=C/C(=O)OC(C)(C)C)C=[N+]3[B-](F)(F)n3c2ccc3N2CCCC2)c(C)c1

- emission maximum (in ClCCl): 531 nm
Structure (SMILES): CCCCN1C(=O)C2=C(c3ccc(Br)cc3)NC(=O)C2=C1c1ccc(Br)cc1

- emission maximum (in ClCCl): 432 nm
Structure (SMILES): CC1CCC(=CS/C=C/c2ccc(-c3ccc(/C=C/SC=C4CCC(C)CC4)cc3)cc2)CC1 (stereo not given)

- emission maximum (in ClCCl): 420 nm
Structure (SMILES): COc1ccc(-c2cnc(-c3cccnc3)o2)cc1OC

- emission maximum (in O): 432 nm
Structure (SMILES): O=C(O)CCCCCn1c2ccccc2c(=O)c2cc(Br)ccc21

- emission maximum (in C1CCOC1): 493 nm
Structure (SMILES): N#Cc1c(N2CCCCC2)cc(-c2ccc(Br)s2)c2c1CCc1ccccc1-2

- emission maximum (in ClCCl): 360 nm
Structure (SMILES): c1ccc(C2c3ccccc3-c3cc4c(cc32)-c2ccccc2C4c2ccccc2)cc1 (stereo not given)

Continued, compound first:

Structure (SMILES): O=C(N/N=C/c1ccccc1O)c1ccccc1
- emission maximum (in C1CCOC1): 306 nm
- emission maximum (in CC#N): 373 nm
- emission maximum (in CC(C)=O): 426 nm
- emission maximum (in CCO): 429 nm
- emission maximum (in CN(C)C=O): 458 nm
- emission maximum (in CS(C)=O): 552 nm
- emission maximum (in ClCCl): 392 nm

Structure (SMILES): N#Cc1ccc(-c2ccc3c(c2)c2cc(-c4ccc(C#N)cc4)ccc2c2c3nc(-c3ccc(-c4ccc(N(c5ccccc5)c5ccccc5)cc4)cc3)n2-c2ccccc2)cc1
- emission maximum (in C1CCOC1): 468.68 nm
- emission maximum (in CC#N): 519.93 nm
- emission maximum (in CCCCCC): 421.18 nm
- emission maximum (in CCOCC): 449.2 nm

Structure (SMILES): COc1cc(C2=c3c(c4ccc(C(C)(C)C)cc4c4cc(C(C)(C)C)ccc34)=[N+]3C2=Nc2c(-c4cc(OC)c(OC)c(OC)c4)c4c5ccc(C(C)(C)C)cc5c5cc(C(C)(C)C)ccc5c4n2[B-]3(F)F)cc(OC)c1OC
- emission maximum (in Cc1ccccc1): 816 nm

Structure (SMILES): CCCC1=CC2=C(c3c(C)cc(C)cc3C)c3cc(CCC)c(-c4ccc5ccc6cccc7ccc4c5c67)n3[B-](F)(F)[N+]2=C1c1ccc2ccc3cccc4ccc1c2c34
- emission maximum (in ClC(Cl)Cl): 626 nm

Structure (SMILES): CCCCC1(CCCC)c2cc(-c3ccc(C=C4C(=O)c5ccccc5C4=O)cc3)ccc2-c2ccc(-c3ccc(C=C4C(=O)c5ccccc5C4=O)cc3)cc21
- emission maximum (in C1CCOC1): 532 nm
- emission maximum (in CC(C)=O): 564 nm
- emission maximum (in CCCCCC): 465 nm
- emission maximum (in CS(C)=O): 596 nm
- emission maximum (in Cc1ccccc1): 492 nm
- emission maximum (in ClC(Cl)Cl): 527 nm

Structure (SMILES): CC1(C)c2ccccc2N(c2ccccc2)c2ccc(-c3ccc(-c4ccc5c(c4)C(C)(C)c4ccccc4N5c4ccccc4)c4nsnc34)cc21
- emission maximum (in Cc1ccccc1): 596.02 nm
- emission maximum (in c1ccc2c(c1)c1ccccc1n2-c1ccc(-c2ccc(-n3c4ccccc4c4ccccc43)cc2)cc1): 588 nm

Structure (SMILES): CC(C)(C)c1ccc2c(c1)c1cc(C(C)(C)C)ccc1n2-c1ccc(C(=O)c2ccc(-n3c4ccc(C(C)(C)C)cc4c4cc(C(C)(C)C)ccc43)nc2)cn1
- emission maximum (in C1CCOC1): 496.58 nm
- emission maximum (in Cc1ccccc1): 465.19 nm
- emission maximum (in ClCCl): 532.91 nm

Structure (SMILES): O=Cc1cc(N2CCCCC2)c2ccc3c(N4CCCCC4)cc(N4CCCCC4)c4ccc1c2c43
- emission maximum (in C1COCCO1): 557 nm
- emission maximum (in CC#N): 596 nm
- emission maximum (in CC(C)=O): 581 nm
- emission maximum (in CCCCCC): 520 nm
- emission maximum (in CCO): 635 nm
- emission maximum (in CCOC(C)=O): 562 nm
- emission maximum (in CO): 643 nm
- emission maximum (in CS(C)=O): 601 nm
- emission maximum (in Cc1ccccc1): 554 nm
- emission maximum (in ClCCl): 597 nm

Structure (SMILES): CC1=[N+]2C(=C(Oc3cc(C)c4c(c3)CC[C@@](C)(CCC[C@H](C)CCC[C@H](C)CCCC(C)C)O4)c3ccc(C)n3[B-]2(F)F)C=C1c1cc2n(c1)[B-](F)(F)[N+]1=CC=CC1=C2c1c(C)cc(C)cc1C
- emission maximum (in C1CCCCC1): 632 nm
- emission maximum (in CCOC(C)=O): 662 nm

Structure (SMILES): COc1cc(C2=CC3=C(c4c(C)cc(C)cc4C)c4cc(-c5cc(OC)c(OC)c(OC)c5)c(-c5cc(OC)c(OC)c(OC)c5)n4[B-](F)(F)[N+]3=C2c2cc(OC)c(OC)c(OC)c2)cc(OC)c1OC
- emission maximum (in C1CCCCC1): 670 nm
- emission maximum (in C1CCOC1): 662 nm
- emission maximum (in CC#N): 628 nm
- emission maximum (in Cc1ccccc1): 677 nm
- emission maximum (in ClCCl): 651 nm

Structure (SMILES): CC1(C)c2ccccc2N(c2ccccc2)c2ccc(-c3ccc(C(=O)c4ccc(-c5ccc6c(c5)C(C)(C)c5ccccc5N6c5ccccc5)cc4)cc3)cc21
- emission maximum (in Cc1ccccc1): 449.72 nm
- emission maximum (in O=P(c1ccccc1)(c1ccccc1)c1ccccc1Oc1ccccc1P(=O)(c1ccccc1)c1ccccc1): 475 nm

Structure (SMILES): CCCCC1(c2ccccc2)Nc2c(-c3ccc(N(C)C)cc3)ccc(-c3ccc(N(C)C)cc3)c2N=C1c1ccccc1 (stereo not given)
- emission maximum (in C1CCOC1): 568 nm
- emission maximum (in CC#N): 588 nm
- emission maximum (in CCCCCC): 530 nm
- emission maximum (in CN(C)C=O): 596 nm
- emission maximum (in Cc1ccccc1): 547 nm
- emission maximum (in ClC(Cl)Cl): 561 nm

Structure (SMILES): Cc1cc2c(cc1[N+](=O)[O-])NC(=O)CC(=O)N2
- emission maximum (in CS(C)=O): 350 nm

Structure (SMILES): CC(C)(C)c1ccc2c(c1)c1cc(C(C)(C)C)ccc1n2-c1ccc(C#Cc2ccc(C#Cc3ccc(-n4c5ccc(C(C)(C)C)cc5c5cc(C(C)(C)C)ccc54)cc3)cc2)cc1
- emission maximum (in CC#N): 470 nm
- emission maximum (in CCCCC): 385 nm
- emission maximum (in CO): 453 nm
- emission maximum (in Cc1ccccc1): 400 nm
- emission maximum (in ClC(Cl)Cl): 419 nm
- emission maximum (in ClCCl): 437 nm

Structure (SMILES): CCCCCCCCCCn1nnc(-c2ccc(C#Cc3ccc(C#Cc4ccc(-c5nnn(CCCCCCCCCC)n5)cc4)c4nc5c6ccccc6c6ccccc6c5nc34)cc2)n1
- emission maximum (in C1CCOC1): 495 nm
- emission maximum (in Cc1ccccc1): 488 nm
- emission maximum (in ClCCl): 502 nm

Structure (SMILES): O=Cc1cc(O)ccc1O
- emission maximum (in CC(C)=O): 423 nm
- emission maximum (in CCCO): 484 nm
- emission maximum (in CCO): 487 nm
- emission maximum (in CN(C)C=O): 440 nm
- emission maximum (in CN(C)P(=O)(N(C)C)N(C)C): 438 nm
- emission maximum (in CNC=O): 479 nm
- emission maximum (in CS(C)=O): 446 nm
- emission maximum (in NC=O): 490 nm

Structure (SMILES): COCCOCCOCCOc1cc(C=O)c(OCCOCCOCCOC)cc1C=O
- emission maximum (in CC(C)(C)O): 478 nm
- emission maximum (in CC(C)CO): 479 nm
- emission maximum (in CC(C)O): 481 nm
- emission maximum (in CCCCO): 472 nm
- emission maximum (in CCCO): 471 nm
- emission maximum (in CCO): 465 nm
- emission maximum (in CN(C)C=O): 464 nm
- emission maximum (in CNC=O): 450 nm
- emission maximum (in CO): 467 nm
- emission maximum (in NC=O): 458 nm
- emission maximum (in O): 495 nm

Structure (SMILES): c1ccc2c(c1)c1ccccc1n2-c1cc(-c2nc3ccccn3n2)cc(-n2c3ccccc3c3ccccc32)c1
- emission maximum (in Cc1ccccc1): 373 nm

Structure (SMILES): Cc1ccc(C2=C3C=CC(C#Cc4ccccc4)=[N+]3[B-](F)(F)n3c(C#Cc4ccccc4)ccc32)cc1
- emission maximum (in C1CCCCC1): 626 nm
- emission maximum (in C1CCOC1): 625 nm
- emission maximum (in C1COCCO1): 626 nm
- emission maximum (in CCOC(C)=O): 621 nm
- emission maximum (in CO): 622 nm
- emission maximum (in Cc1ccccc1): 629 nm
- emission maximum (in ClC(Cl)Cl): 628 nm
- emission maximum (in ClCCl): 628 nm

Structure (SMILES): CC[N+]1(CC)CN2C(=N1)C(C(=O)O)=Cc1c2ccc2ccccc12
- emission maximum (in O): 487 nm

Structure (SMILES): COc1cccc(C2=c3c(c4ccc(C(C)(C)C)cc4c4cc(C(C)(C)C)ccc34)=[N+]3C2=C(c2ccccc2)c2c(-c4cccc(OC)c4)c4c5ccc(C(C)(C)C)cc5c5cc(C(C)(C)C)ccc5c4n2[B-]3(F)F)c1
- emission maximum (in C1CCCCC1): 727 nm
- emission maximum (in C1CCOC1): 737 nm
- emission maximum (in CC#N): 721 nm
- emission maximum (in Cc1ccccc1): 730 nm
- emission maximum (in ClCCl): 737 nm

Structure (SMILES): Cc1ccc(-n2c(-c3ccccc3NS(=O)(=O)c3ccc(C)cc3)nc3c4ccccc4c4ccccc4c32)cc1
- emission maximum (in Cc1ccccc1): 365 nm

Structure (SMILES): CC(=O)O[B-]1(OC(C)=O)OC(/C=C/c2cccc3ccccc23)=CC(/C=C/c2cccc3ccccc23)=[O+]1
- emission maximum (in C1CCOC1): 539 nm
- emission maximum (in CC#N): 569 nm
- emission maximum (in CC(C)=O): 553 nm
- emission maximum (in CS(C)=O): 574 nm
- emission maximum (in Cc1ccccc1): 529 nm
- emission maximum (in ClC(Cl)Cl): 551 nm
- emission maximum (in ClCCl): 554 nm

Reference: the Deep4Chem optical property database
